Experimental data: patent US20230339900A1, “CASEIN KINASE 1 DELTA MODULATORS” (Janssen Pharmaceutica NV, priority 2020, published 2023)

Key:
[1] = molecular target: human recombinant GST cleaved CSNK1D (Homo sapiens (Human), UniProt P48730); test: Purified enzyme assay (ADP-Glo Kinase Assay); format: biochemical; settings: 2 nM CSNK1D, peptide substrate 150 μM, ATP 20 μM, 45 minutes room temperature
Protocol: In this assay, CSNK1D phosphorylates a substrate peptide PLSRTL-pS-VASLPGL in the presence of ATP. […] This assay monitors CSNK1D kinase activity by measuring the amount of ADP produced in the assay. A substrate mix is prepared by diluting peptide substrate (final concentration 150 μM) with ATP (final concentration 20 μM) in assay buffer (50 mM Tris/HCl pH 7.4+10 mM MgCl2+1 mM DTT+0.1% BSA). The substrate mix is added to each well of a low volume, 384-well, white opaque plate. Test compounds were diluted in HBSS and added in a dose-response to the plate. To start the reaction, 2 nM of constitutively active human recombinant GST cleaved CSNK1D (University of Dundee, clone DU 19064, stored at 0.28 mg/mL in 50 mM Tris/HCl pH 7.5, 150 mM NaCl, 270 mM Sucrose, 0.1 mM EGTA, 0.1% 2-mercaptoethanol, 0.02% Brij-35.1 mM benzamidine, 0.2 mM PMSF) was added to each well and the plate centrifuged for 5 minutes at 1500 rpm. The total volume of each reaction is 5 ul (2 μL of substrate mix, 1 μL of diluted compounds, and 2 μL of human recombinant CSNK1D). The plates are incubated for 45 minutes at room temperature.
ADP was quantified using the ADP-Glo™ Kinase Assay. ADP-Glo Reagent (5 μL) was added to each well. After a 1 hour incubation at room temperature, Kinase Detection Reagent (10 μL) was added to each well and incubated for 30 minutes. Luminescence was measured on the Perkin Elmer Wallac EnVision 2104 Multi-label Reader. The raw data from the Envision is used to calculate percent activity.

[2] = molecular target: human CSNK1D tagged with nanoluciferase (Homo sapiens (Human), UniProt P48730); test: Whole Cell nBRET CSNK1D Binding Assay; settings: living CHO cells stably expressing human CSNK1D-nanoluciferase; NanoBret tracer 130 nM; 2 hours 37° C.; read-out: CSNK1D BRET IC50
Sequence of human CSNK1D tagged with nanoluciferase (P48730 whole entry): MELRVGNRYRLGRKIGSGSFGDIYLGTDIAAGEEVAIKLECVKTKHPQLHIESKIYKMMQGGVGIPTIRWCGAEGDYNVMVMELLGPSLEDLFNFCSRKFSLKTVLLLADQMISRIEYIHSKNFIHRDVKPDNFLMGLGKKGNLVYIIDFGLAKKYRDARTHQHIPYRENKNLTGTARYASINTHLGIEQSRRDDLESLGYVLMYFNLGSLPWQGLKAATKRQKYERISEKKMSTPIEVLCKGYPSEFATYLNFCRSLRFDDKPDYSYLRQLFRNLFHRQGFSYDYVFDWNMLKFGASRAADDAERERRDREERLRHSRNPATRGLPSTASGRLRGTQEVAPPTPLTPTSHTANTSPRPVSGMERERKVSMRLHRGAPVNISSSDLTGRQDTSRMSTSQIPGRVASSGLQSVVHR
Protocol: This cellular binding assay uses a bioluminescence resonance energy transfer to measure human CSNK1D binding activity in living Chinese Hamster Ovary (CHO) cells that are stably expressing human CSNK1D tagged with nanoluciferase. The cells were grown to confluency in growth media (DMEM:F12, 50 u/mLPen/Strep, […] glutamine, and 0.6 mg/mL G418) in 10 cm^2 dishes. Cells were seeded onto white, opaque 384-well plates (Corning, cat #3704) at a density of 8,000 cells/well in serum-free OptiMEM and left to incubated overnight at 37° C., […]. The next day, test compounds were added in a dose response to the plate followed by a NanoBret tracer (130 nM). The plate is mixed on an orbital shaker for 30 seconds, then placed in a 37° C. incubator for 2 hours. NanoBret Nano-Glo Substrate solution (20 μL) is added to all wells and incubated for 3 minutes at room temperature. Donor (450 nm) and acceptor (630 nm) emissions are then measured within 10 minutes using a ClarioStar plate reader. The data is used to calculate millibret units, defined as (E630/E450)*1000. Bret emissions are then graphed against the log of compound concentrations and these graphs are used to determine the IC50 of each compound.

Sequence of human recombinant GST cleaved CSNK1D (P48730 whole entry): as above

| SMILES | AC50 [1] [nM] | IC50 [2] [nM] |
| --- | --- | --- |
| Cn1cc(-c2ccnc3[nH]ncc23)c(-c2ccc(C(F)F)cn2)n1 [Example 33, 4-(3-(5-(Difluoromethyl)pyridin-2-yl)-1-methyl-1H-pyrazol-4-yl)-1H-pyrazolo[3,4-b]pyridine] | 317 | 17800 |
| Cc1ccnc2c(-c3cn(C)nc3-c3ccc(F)cn3)ccnc12 [Example 133, 4-[3-(5-Fluoro-2-pyridyl)-1-methyl-pyrazol-4-yl]-8-methyl-1,5-naphthyridine] | 7030 | > 10000 |
| COc1ccc2c(-c3cn(C)nc3-c3ccc(F)cn3)cc(C)nc2c1 [Example 110, 4-[3-(5-Fluoro-2-pyridyl)-1-methyl-pyrazol-4-yl]-7-methoxy-2-methyl-quinoline] | 5360 | > 10000 |
| Cn1cc(-c2ccnc3cccnc23)c(-c2ccc(F)cn2)n1 [Example 126, 4-[3-(5-Fluoro-2-pyridyl)-1-methyl-pyrazol-4-yl]-1,5-naphthyridine] | 26 | 4620 |
| Cn1cc(-c2ccnc3c2CCCN3)c(-c2ccc(F)cn2)n1 [Example 114, 5-[3-(5-Fluoro-2-pyridyl)-1-methyl-pyrazol-4-yl]-1,2,3,4-tetrahydro-1,8-naphthyridine] | 166 | 4230 |
| Cn1cc(-c2ccnc3[nH]ccc23)c(-c2nccn2C)n1 [Example 11, 4-(1-Methyl-3-(1-methyl-1H-imidazol-2-yl)-1H-pyrazol-4-yl)-1H-pyrrolo[2,3-b]pyridine] | 111 | 4360 |
| Cc1cc(-c2cn(C)nc2-c2c(C)cncc2F)c2cn[nH]c2n1 [Example 140, 4-[3-(3-Fluoro-5-methyl-4-pyridyl)-1-methyl-pyrazol-4-yl]-6-methyl-1H-pyrazolo[3,4-b]pyridine] | 1170 | > 10000 |
| Cc1cc(-c2cn(C)nc2-c2ncco2)c2cn[nH]c2n1 [Example 8, 2-(1-Methyl-4-(6-methyl-1H-pyrazolo[3,4-b]pyridin-4-yl)-1H-pyrazol-3-yl)oxazole] | 783 | > 10000 |
| Cn1cc(-c2ccnc3[nH]ccc23)c(-c2ccncc2F)n1 [Example 18, 4-[3-(3-Fluoro-4-pyridyl)-1-methyl-pyrazol-4-yl]-1H-pyrrolo[2,3-b]pyridine] | 26 | 1770 |
| Cn1cc(-c2ccnc3[nH]ccc23)c(-c2cccnn2)n1 [Example 48, 4-(1-Methyl-3-pyridazin-3-yl-pyrazol-4-yl)-1H-pyrrolo[2,3-b]pyridine] | 39 | 3470 |
| COc1nc(-c2nn(C)cc2-c2cc(C)nc3[nH]ncc23)ccc1F [Example 41, 4-(3-(5-Fluoro-6-methoxypyridin-2-yl)-1-methyl-1H-pyrazol-4-yl)-6-methyl-1H-pyrazolo[3,4-b]pyridine] | 107 | 5000 |
| Cn1cc(-c2ccnc3c2CCNC3)c(-c2ccc(F)cn2)n1 [Example 113, 4-[3-(5-Fluoro-2-pyridyl)-1-methyl-pyrazol-4-yl]-5,6,7,8-tetrahydro-1,7-naphthyridine] | 144 | > 10000 |
| Cc1ccc(-c2nn(C)cc2-c2ccnc3[nH]ccc23)nc1 [Example 31, 4-[1-Methyl-3-(5-methyl-2-pyridyl)pyrazol-4-yl]-1H-pyrrolo[2,3-b]pyridine] | 50 | 3120 |

Molecules with a lower IC50 [2], results first:

| AC50 [1] [nM] | IC50 [2] [nM] | SMILES |
| --- | --- | --- |
| 41 | 1420 | Cn1cc(-c2ccnc3[nH]ccc23)c(-c2cnco2)n1 [Example 6, 5-(1-Methyl-4-(1H-pyrrolo[2,3-b]pyridin-4-yl)-1H-pyrazol-3-yl)oxazole] |
| 4 | 80 | FCCn1cc(-c2ccnc3[nH]ccc23)c(-c2ccc(F)cn2)n1 [Example 68, 4-[1-(2-Fluoroethyl)-3-(5-fluoro-2-pyridyl)pyrazol-4-yl]-1H-pyrrolo[2,3-b]pyridine] |
| 52 | 803 | COc1ccc2ncc(F)c(-c3cn(C)nc3-c3ccc(F)cn3)c2n1 [Example 156, 7-Fluoro-8-[3-(5-fluoro-2-pyridyl)-1-methyl-pyrazol-4-yl]-2-methoxy-1,5-naphthyridine] |
| 38 | 890 | Cc1cncc(-c2nn(C)cc2-c2cc(C)nc3[nH]ncc23)c1 [Example 137, 6-Methyl-4-[1-methyl-3-(5-methyl-3-pyridyl)pyrazol-4-yl]-1H-pyrazolo[3,4-b]pyridine] |
| 36 | 218 | Fc1ccc(-c2nn(C3CCOC3)cc2-c2ccnc3[nH]ccc23)nc1 (racemic) [Example 74, (R/S)-4-[3-(5-Fluoro-2-pyridyl)-1-tetrahydrofuran-3-yl-pyrazol-4-yl]-1H-pyrrolo[2,3-b]pyridine] |
| 6 | 59 | Cc1c[nH]c2nccc(-c3cn(C)nc3-c3ccc(F)cn3)c12 [Example 82, 4-[3-(5-Fluoro-2-pyridyl)-1-methyl-pyrazol-4-yl]-3-methyl-1H-pyrrolo[2,3-b]pyridine] |
| 4 | 94 | Cn1cc(-c2c(C(F)(F)F)cnc3[nH]ccc23)c(-c2ccc(F)cn2)n1 [Example 87, 4-[3-(5-Fluoro-2-pyridyl)-1-methyl-pyrazol-4-yl]-5-(trifluoromethyl)-1H-pyrrolo[2,3-b]pyridine] |
| 54 | 1570 | CC(C)c1cc2c(-c3cn(C)nc3-c3ccc(F)cn3)ccnc2[nH]1 [Example 83, 4-(3-(5-Fluoropyridin-2-yl)-1-methyl-1H-pyrazol-4-yl)-2-isopropyl-1H-pyrrolo[2,3-b]pyridine] |
| 5 | 122 | Cc1cc(-c2cn(CC3COC3)nc2-c2ccc(F)cn2)c2cn[nH]c2n1 [Example 50, 4-[3-(5-Fluoro-2-pyridyl)-1-(oxetan-3-ylmethyl)pyrazol-4-yl]-6-methyl-1H-pyrazolo[3,4-b]pyridine] |
| 22 | 255 | Cn1cc(-c2ccnc3[nH]c(C(F)(F)F)cc23)c(-c2ccc(F)cn2)n1 [Example 85, 4-(3-(5-Fluoropyridin-2-yl)-1-methyl-1H-pyrazol-4-yl)-2-(trifluoromethyl)-1H-pyrrolo[2,3-b]pyridine] |
| 7 | 186 | Cn1cc(-c2ccnc3[nH]ccc23)c(-c2cccc(F)n2)n1 [Example 29, 4-[3-(6-Fluoro-2-pyridyl)-1-methyl-pyrazol-4-yl]-1H-pyrrolo[2,3-b]pyridine] |
| 3 | 76 | Cn1cc(-c2ccnc(NC(=O)C3CC3)c2)c(-c2ccc(F)cn2)n1 [Example 116, N-(4-(3-(5-Fluoropyridin-2-yl)-1-methyl-1H-pyrazol-4-yl)pyridin-2-yl)cyclopropanecarboxamide] |
| 170 | 1320 | Cn1cc(-c2ccnc3ccccc23)c(-c2ccc(F)cn2)n1 [Example 104, 4-[3-(5-Fluoro-2-pyridyl)-1-methyl-pyrazol-4-yl]quinoline] |
| 8 | 477 | CC(C)Cn1cc(-c2ccnc3[nH]ncc23)c(-c2ccc(F)cn2)n1 [Example 62, 4-(3-(5-Fluoropyridin-2-yl)-1-isobutyl-1H-pyrazol-4-yl)-1H-pyrazolo[3,4-b]pyridine] |
|  | 184 | Cn1cc(-c2ccnc3[nH]c(C4COC4)cc23)c(-c2ccc(F)cn2)n1 [Example 92, 4-(3-(5-Fluoropyridin-2-yl)-1-methyl-1H-pyrazol-4-yl)-2-(oxetan-3-yl)-1H-pyrrolo[2,3-b]pyridine] |
